From patent US11149253B2, “Small molecule compound combination for reprogramming digestive tract derived epithelial cells to endodermal stem/progenitor cells, reprogramming method and application” (INSTITUE OF TRANSFUSION MEDICINE, ACADEMY OF MILITARY …, priority 2016, dated 2021)

How the values were obtained:
[1] = tested on: human gastric epithelial cells (hGECs); assay: Reprogramming of human gastric epithelial cells (hGECs) to induced endodermal progenitor cells (hiEndoPCs); clonal formation efficiency; type: cell-based; details: aGSEMFs supporting cells; for clonal formation efficiency when the compound was removed from 8M: removed one by one from 8 small molecule compounds (8M), day 15; for clonal formation efficiency when the compound was removed from BBRS: removed one by one from BBRS combination
Procedure: 1. Proliferation of the initiating cells: Primary isolated human gastric epithelial cells (hGECs) or duodenal epithelial cells (hDECs) were used as initiating cells, and cultured in Kubta medium (prepared according to the literature, literature source: Kubota, H., and Reid, L. M. (2000). Clonogenic hepatoblasts, common precursors for hepatocytic and biliary lineages, are lacking classical major histocompatibility complex class I antigen. Proc. Natl. Acad. Sci. USA 97, 12132-12137) at 37° C. in a 5% CO2 incubator for 4-5 days, and the initiating cells were expanded.
2. Preparation of trophoblast cells: adult human gastric subepithelial myofibroblasts (aGSEMFs, the cells were obtained by separation of gastric tissue matrix layers, frozen in large quantities after culture and proliferation, and resuscitated in advance when necessary) as trophoblast cells were treated with mitomycin-C (10 μg/mL, for the purpose of losing mitosis of trophoblast cells) for 2-3 hours, washed with PBS for 3-4 times, the cells were digested by TrypLE enzyme, and then the cells were washed;
3. When human gastric epithelial cells (hGECs) or duodenal epithelial cells (hDECs) were cultured until day 5-6, the treated gastric subepithelial myofibroblasts were added at a suitable density (generally, density of 1-3×10^5 per square centimeter) to human gastric epithelial cells (hGECs) or duodenal epithelial cells (hDECs) being cultured, and placed at 37° C. in a 5% CO2 incubator overnight (12-16 hours);
4. Reprogramming culture: on the second day after the addition of gastric subepithelial myofibroblasts, the medium was changed to 8M reprogramming medium, and changed every 2-3 days, and continuous observation was performed. Generally, induced endodermal progenitor cells (hiEndoPCs) were obtained after culturing for 1 week or 2 weeks more (7-15 days).
1. Calculation of the total number of clones.
2. Calculation of the area of different clones using the microscope graticule: the area of each microscope microlattice was 0.0625 mm^2, and the number of lattices occupied by the clone multiplied by 0.0625 mm^2 was the area of each clone.
3. The evaluation of the efficiency of reprogramming is proformed by colligating number of clones and the area of the clones.
Since the clonal morphology produced on day 15 of reprogramming was most typical (FIGS. 8E and 8F), colony formation efficiency was usually calculated at this time point. However, the growth rate of clones was faster from day 7 to day 15, and many clones were fused together to form a large clone upon the time point for calculation (FIG. 8B), so the number of clones was less upon calculation, but the total area was increasing. In order to reflect the reprogramming effect more objectively, the present experiment colligated the total number of clones and the number of clones and clone area under different areas, as the calculation method of reprogramming efficiency. Calculation of the area of different clones using the microscope graticule: the area of each microscope microlattice was 0.0625 mm^2, and the number of lattices occupied by the clone multiplied by 0.0625 mm^2 was the area of each clone. The calculation method for different sizes of cloned areas was shown in FIG. 9, and the calculation results were shown in Table 4.
1) The trophoblast cells screened in the second part were used as the supporting cells, and the small molecules were removed one by one based on the culture conditions for above-mentioned 8 small molecule compounds (8M), and the indispensable small molecules were first screened.
2) Based on the small molecule compound combinations screened in the step 1), the small molecule compounds were successively removed one by one so that the best small molecule compound combination (with highest reprogramming efficiency) and the combination with fewest small molecule compounds (guaranteed for the formation of the clone) were finally found. […]

[2] = tested on: hiEndoPCs-Pans; assay: C-peptide release of hiEndoPC-derived pancreatic cells (ELISA); type: cell-based, human; details: insulin secretion promoter stimulation of hiEndoPCs-Pans
Procedure: 2. The adhered cells were induced to differentiate to the pancreas according to four stages.
2.1 MCDB 131 medium (purchased from Gibco)+1.5 g/L of sodium bicarbonate+2 mM (concentration) 2 mM of Glutamax (Glutamine)+10 mM of final glucose concentration (glucose)+2% of BSA (bovine serum albumin)+0.25 mM of ascorbic acid (vitamin C)+50 ng/mL of FGF7 (fibroblast growth factor 7)+0.25 μM of SANT-1+1 μM of retinoic acid (RA)+100 nM of LDN193189+1:200 ITS-X (insulin-Transferrin-selenium-ethanolamine complex solution)+200 nM TPB, cultured for 2 days.
2.2 MCDB 131 medium+1.5 g/L of sodium bicarbonate+2 mM of Glutamax+10 mM of final glucose concentration+2% of BSA+0.25 mM of ascorbic acid+2 ng/mL of FGF7+0.25 μM of SANT-1+0.1 μM of retinoic acid+200 nM of LDN193189+1:200 ITS-X+100 nM of TPB, cultured for 2 days. […]
13. The OD value was measured at a wavelength of 450 nm on a microplate reader within 30 minutes, and the results were calculated.

## COC(=O)C1=C(C)NC(C)=C([N+](=O)[O-])C1c1ccccc1C(F)(F)F (stereo not shown) [Bay K 8644]
[1]
  clonal formation efficiency when the compound was removed from 8M: obviously decreased
  clonal formation efficiency when the compound was removed from BBRS: significantly decreased

## COc1cc2nc(N3CCCN(C)CC3)nc(NC3CCN(Cc4ccccc4)CC3)c2cc1OC [Bix01294]
[1]
  clonal formation efficiency when the compound was removed from 8M: obviously decreased
  clonal formation efficiency when the compound was removed from BBRS: significantly decreased

## [Cl-].[K+] [KCL]
[2]
  release of C peptide: significantly increased

## O=C(NOC[C@H](O)CO)c1ccc(F)c(F)c1Nc1ccc(I)cc1F [PD0325901]
[1]
  clonal formation efficiency when the compound was removed from 8M: increased

## O=C(O)/C=C(/CCc1ccc(Cl)cc1)c1ccccc1 [PS48]
[1]
  clonal formation efficiency when the compound was removed from 8M: increased

## O=C(O)C(Cc1c[nH]c2ccccc12)N1C(=O)c2ccccc2C1=O (stereo not shown) [RG108]
[1]
  clonal formation efficiency when the compound was removed from 8M: obviously decreased
  clonal formation efficiency when the compound was removed from BBRS: significantly decreased

## NC(=O)c1ccc(-c2nc(-c3ccc4c(c3)OCO4)c(-c3ccccn3)[nH]2)cc1 [SB431542]
[1]; SB431542 as basis
  clonal formation efficiency compared with BBRS: not as good as the optimal combination of BBRS
  clone formation with the fewest small molecules: capable for forming the clones
[1]
  clonal formation efficiency when the compound was removed from 8M: clones were not produced
  clonal formation efficiency when the compound was removed from BBRS: no clones were formed

## CCCCNC(=O)NS(=O)(=O)c1ccc(C)cc1 [Tolbutamiden]
[2]
  release of C peptide: significantly increased

## CCCC(CCC)C(=O)O [VPA, Valproic Acid]
[1]
  clonal formation efficiency when the compound was removed from 8M: did not change significantly

## Fructose diphosphate [FBP]
[1]
  clonal formation efficiency when the compound was removed from 8M: increased
